Experimental data as given in ChEMBL document CHEMBL4376803, “Recent Advances in the Exploration of Therapeutic Analogues of Gramicidin S, an Old but Still Potent Antimicrobial Peptide” (J Med Chem, 2019).
Converted amounts (≈) assume the structure as drawn. One block for each compound: values may come before it. Square brackets hold non-standard residues; d marks the D form. Peptide text beside a SMILES is read from it. Orn = NCCC[C@H](N)C(=O)O

What was measured:
Escherichia coli [1] = assay: Antibacterial activity against Escherichia coli UB1005 after overnight incubation by microtiter dilution method; format: functional
Pseudomonas aeruginosa [2] = assay: Antibacterial activity against Pseudomonas aeruginosa H187 after overnight incubation by microtiter dilution method; format: functional
Enterococcus faecalis [3] = assay: Antibacterial activity against Enterococcus faecalis ATCC 29212 after overnight incubation by microtiter dilution method; format: functional
Staphylococcus aureus [4] = assay: Antibacterial activity against Staphylococcus aureus K147 after overnight incubation by microtiter dilution method; format: functional
Candida albicans = assay: Antibacterial activity against Candida albicans after overnight incubation by microtiter dilution method; format: functional
Escherichia coli [5] = assay: Antibacterial activity against Escherichia coli ATCC 25922; format: functional
Pseudomonas aeruginosa [6] = assay: Antibacterial activity against Pseudomonas aeruginosa ATCC 27853; format: functional
Enterococcus faecalis [7] = assay: Antibacterial activity against Enterococcus faecalis ATCC 29212; format: functional
Staphylococcus aureus [8] = assay: Antibacterial activity against Staphylococcus aureus ATCC 29213; format: functional
Staphylococcus aureus [9] = assay: Antibacterial activity against methicillin-resistant Staphylococcus aureus ATCC 4330; format: functional
Escherichia coli [10] = assay: Antibacterial activity against Escherichia coli NBRC 12734 after overnight incubation by microplate dilution method; format: functional
Pseudomonas aeruginosa [11] = assay: Antibacterial activity against Pseudomonas aeruginosa NBRC 3080 after overnight incubation by microplate dilution method; format: functional
Bacillus subtilis [12] = assay: Antibacterial activity against Bacillus subtilis NBRC 3513 after overnight incubation by microplate dilution method; format: functional
Staphylococcus aureus [13] = assay: Antibacterial activity against Staphylococcus aureus NBRC 12732 after overnight incubation by microplate dilution method; format: functional
Priestia megaterium [14] = assay: Antibacterial activity against Bacillus megaterium ATCC 19213 after overnight incubation by microplate dilution method; format: functional
Escherichia coli [15] = assay: Antibacterial activity against Escherichia coli ATCC 25922 after 24 hrs by broth dilution method; format: functional; conditions: ATCC 25922, 24 h
Pseudomonas aeruginosa [16] = assay: Antibacterial activity against Pseudomonas aeruginosa ATCC 19582 after 24 hrs by broth dilution method; format: functional; conditions: ATCC 19582, 24 h
Enterococcus faecalis [17] = assay: Antibacterial activity against Enterococcus faecalis 1131 after 24 hrs by broth dilution method; format: functional; conditions: Enterococcus faecalis, 1131, 24 h
Staphylococcus aureus [18] = assay: Antibacterial activity against Staphylococcus aureus 7323; format: functional
Escherichia coli [19] = assay: Antibacterial activity against Escherichia coli K-12 strain W3110 incubated for 20 hrs by liquid microdilution method; format: functional; conditions: K-12 substr. W3110, 20 h
Staphylococcus aureus [20] = assay: Antibacterial activity against Staphylococcus aureus 209P incubated for 20 hrs by liquid microdilution method; format: functional
Pseudomonas aeruginosa [21] = assay: Antibacterial activity against Pseudomonas aeruginosa ATCC 27853 incubated for 24 hrs; format: functional; conditions: ATCC 27853, 24 h
Escherichia coli [22] = assay: Antibacterial activity against Escherichia coli ATCC 25922 after 24 hrs; format: functional; conditions: ATCC 25922, 24 h
Enterococcus faecalis [23] = assay: Antibacterial activity against Enterococcus faecalis ATCC 29212 after 24 hrs; format: functional; conditions: ATCC 29212, 24 h
Staphylococcus aureus [24] = assay: Antibacterial activity against Staphylococcus aureus ATCC 29213 after 24 hrs; format: functional; conditions: ATCC 29213, 24 h
[25] = system: Staphylococcus epidermidis; assay: Antibacterial activity against Staphylococcus epidermidis ATCC 12228 incubated for 24 hrs; format: functional; conditions: ATCC 12228, 24 h
Bacillus cereus = assay: Antibacterial activity against Bacillus cereus ATCC 11778 incubated for 24 hrs; format: functional; conditions: ATCC 11778, 24 h
Staphylococcus aureus [26] = assay: Antibacterial activity against Staphylococcus aureus ATCC 25923 after 22 hrs by double dilution method; format: functional; conditions: ATCC 25923, 22 h
Escherichia coli [27] = assay: Antibacterial activity against Escherichia coli ATCC 25922 after 22 hrs by double dilution method; format: functional; conditions: ATCC 25922, 22 h
Pseudomonas aeruginosa [28] = assay: Antibacterial activity against Pseudomonas aeruginosa ATCC 27853 after 22 hrs by double dilution method; format: functional; conditions: ATCC 27853, 22 h
Enterococcus faecalis [29] = assay: Antibacterial activity against Enterococcus faecalis ATCC 29212 after 22 hrs by double dilution method; format: functional; conditions: ATCC 29212, 22 h
[30] = system: Staphylococcus epidermidis; assay: Antibacterial activity against Staphylococcus epidermidis ATCC 12228 after 22 hrs by double dilution method; format: functional; conditions: ATCC 12228, 22 h
Escherichia coli [31] = assay: Antibacterial activity against Escherichia coli ATCC 8739 incubated for 48 hrs; format: functional; conditions: ATCC 8739, 48 h
Pseudomonas aeruginosa [32] = assay: Antibacterial activity against Pseudomonas aeruginosa ATCC 9027 incubated for 48 hrs; format: functional; conditions: ATCC 9027, 48 h
Staphylococcus aureus [33] = assay: Antibacterial activity against Staphylococcus aureus ATCC 6538 incubated for 48 hrs; format: functional; conditions: ATCC 6538, 48 h
Bacillus subtilis [34] = assay: Antibacterial activity against Bacillus subtilis CIP 52.65 incubated for 48 hrs; format: functional; conditions: CIP 52.65, 48 h
Escherichia coli [35] = assay: Antibacterial activity against Escherichia coli NBRC 12734; format: functional
Pseudomonas aeruginosa [36] = assay: Antibacterial activity against Pseudomonas aeruginosa NBRC 3080; format: functional
Bacillus subtilis [37] = assay: Antibacterial activity against Bacillus subtilis NBRC 3513; format: functional
Staphylococcus aureus [38] = assay: Antibacterial activity against Staphylococcus aureus NBRC 12732; format: functional
Priestia megaterium [39] = assay: Antibacterial activity against Bacillus megaterium ATCC 19213; format: functional
Staphylococcus aureus [40] = assay: Antibacterial activity against methicillin-resistant Staphylococcus aureus NT 1110301981H-T034-PVL+ incubated for 24 hrs; format: functional
Escherichia coli [41] = assay: Antibacterial activity against Escherichia coli K-12 ATCC 29181 after overnight incubation by broth microdilution method; format: functional
Klebsiella pneumoniae = assay: Antibacterial activity against Klebsiella pneumonia K6 ATCC 700603 after overnight incubation by broth microdilution method; format: functional; conditions: 700603 K6
Salmonella = assay: Antibacterial activity against Salmonella after overnight incubation by broth microdilution method; format: functional
Staphylococcus aureus [42] = assay: Antibacterial activity against multidrug-resistant Staphylococcus aureus ATCC BAA-44 after overnight incubation by broth microdilution method; format: functional
Staphylococcus aureus [43] = assay: Antibacterial activity against vancomycin-resistant Staphylococcus aureus Mu50/ATCC 700699 after overnight incubation by broth microdilution method; format: functional
[44] = system: Staphylococcus epidermidis; assay: Antibacterial activity against Staphylococcus epidermidis ATCC 27626 after overnight incubation by broth microdilution method; format: functional
Staphylococcus aureus [45] = assay: Antibacterial activity against Staphylococcus aureus; format: functional
[46] = system: Staphylococcus epidermidis; assay: Antibacterial activity against Staphylococcus epidermidis; format: functional
Staphylococcus xylosus = assay: Antibacterial activity against Staphylococcus xylosus; format: functional
Staphylococcus aureus [47] = assay: Antibacterial activity against Staphylococcus aureus ATCC 49975 after 16 to 20 hrs by broth microdilution method; format: functional
Erythrocyte [48] = assay: Haemolytic activity in human RBC after 30 mins by spectrophotometric analysis; format: ADME, cell-based; conditions: 0.5 h
[49] = Therapeutic index, ratio of HC90 for hemolytic activity in human erythrocytes to MIC against Escherichia coli ATCC 25922; format: toxicity, cell-based; conditions: read-out: TI
[50] = Therapeutic index, ratio of HC90 for hemolytic activity in human erythrocytes to MIC against Pseudomonas aeruginosa ATCC 27853; format: toxicity, cell-based; conditions: read-out: TI
[51] = Therapeutic index, ratio of HC90 for hemolytic activity in human erythrocytes to MIC against Enterococcus faecalis ATCC 29212; format: toxicity, cell-based; conditions: read-out: TI
[52] = Therapeutic index, ratio of HC90 for hemolytic activity in human erythrocytes to MIC against Staphylococcus aureus ATCC 25923; format: toxicity, cell-based; conditions: read-out: TI
[53] = Therapeutic index, ratio of HC90 for hemolytic activity in human erythrocytes to MIC against Staphylococcus epidermidis ATCC 12228; format: toxicity, cell-based; conditions: read-out: TI
Erythrocyte [54] = assay: Hemolytic activity against RBC (unknown origin) at 100 ul after 4 hrs; format: ADME, cell-based; conditions: erythrocyte, 4 h

Compound: CC(C)C[C@@H]1NC(=O)[C@H](CCCN)NC(=O)[C@H](C(C)C)NC(=O)[C@@H]2CCCN2C(=O)[C@@H](Cc2ccccc2)NC(=O)[C@H](CC(C)C)NC(=O)[C@H](CCCN)NC(=O)[C@H](C(C)C)NC(=O)[C@@H]2CCCN2C(=O)[C@@H](Cc2ccccc2)NC1=O (cyclo(V[Orn]L[dF]PV[Orn]L[dF]P))
MIC (Escherichia coli [1]): 6.2 µg/mL (≈ 5.43 µM)
MIC (Pseudomonas aeruginosa [2]): 20 µg/mL (≈ 17.5 µM)
MIC (Enterococcus faecalis [3]): 2.8 µg/mL (≈ 2.45 µM)
MIC (Staphylococcus aureus [4]): 1.5 µg/mL (≈ 1.31 µM)
MIC (Candida albicans): 3.1 µg/mL (≈ 2.72 µM)
MIC (Escherichia coli [5]): 32 µg/mL (≈ 28 µM)
MIC (Pseudomonas aeruginosa [6]): 64 µg/mL (≈ 56.1 µM)
MIC (Enterococcus faecalis [7]): 8 µg/mL (≈ 7.01 µM)
MIC (Staphylococcus aureus [8]): 4 µg/mL (≈ 3.5 µM)
MIC (Staphylococcus aureus [9]): 8 µg/mL (≈ 7.01 µM)
MIC (Escherichia coli [10]): 25 µg/mL (≈ 21.9 µM)
MIC (Pseudomonas aeruginosa [11]): 25 µg/mL (≈ 21.9 µM)
MIC (Bacillus subtilis [12]): 3.13 µg/mL (≈ 2.74 µM)
MIC (Staphylococcus aureus [13]): 3.13 µg/mL (≈ 2.74 µM)
MIC (Priestia megaterium [14]): 3.13 µg/mL (≈ 2.74 µM)
MIC (Escherichia coli [15]): 32 µg/mL (≈ 28 µM)
MIC (Pseudomonas aeruginosa [16]): 8 µg/mL (≈ 7.01 µM)
MIC (Enterococcus faecalis [17]): 8 µg/mL (≈ 7.01 µM)
MIC (Staphylococcus aureus [18]): 8 µg/mL (≈ 7.01 µM)
MIC (Escherichia coli [19]): 32 µg/mL (≈ 28 µM)
MIC (Staphylococcus aureus [20]): 4 µg/mL (≈ 3.5 µM)
MIC (Pseudomonas aeruginosa [21]): 64 µg/mL (≈ 56.1 µM)
MIC (Escherichia coli [22]): 32 µg/mL (≈ 28 µM)
MIC (Enterococcus faecalis [23]): 8 µg/mL (≈ 7.01 µM)
MIC (Staphylococcus aureus [24]): 8 µg/mL (≈ 7.01 µM)
MIC [25]: 8 µg/mL (≈ 7.01 µM)
MIC (Bacillus cereus): 8 µg/mL (≈ 7.01 µM)
MIC (Staphylococcus aureus [26]): 4 µg/mL (≈ 3.5 µM)
MIC (Escherichia coli [27]): 32 µg/mL (≈ 28 µM)
MIC (Pseudomonas aeruginosa [28]): 64 µg/mL (≈ 56.1 µM)
MIC (Enterococcus faecalis [29]): 8 µg/mL (≈ 7.01 µM)
MIC [30]: 2 µg/mL (≈ 1.75 µM)
MIC (Escherichia coli [31]): 12.5 µg/mL (≈ 11 µM)
MIC (Pseudomonas aeruginosa [32]): 50 µg/mL (≈ 43.8 µM)
MIC (Staphylococcus aureus [33]): 3.12 µg/mL (≈ 2.74 µM)
MIC (Bacillus subtilis [34]): 1.56 µg/mL (≈ 1.37 µM)
MIC (Escherichia coli [35]): 25 µg/mL (≈ 21.9 µM)
MIC (Pseudomonas aeruginosa [36]): 25 µg/mL (≈ 21.9 µM)
MIC (Bacillus subtilis [37]): 3.13 µg/mL (≈ 2.74 µM)
MIC (Staphylococcus aureus [38]): 3.13 µg/mL (≈ 2.74 µM)
MIC (Priestia megaterium [39]): 3.13 µg/mL (≈ 2.74 µM)
MIC (Staphylococcus aureus [40]): 8 µg/mL (≈ 7.01 µM)
MIC (Escherichia coli [41]): 28 µg/mL (≈ 24.5 µM)
MIC (Klebsiella pneumoniae): 3.6 µg/mL (≈ 3.15 µM)
MIC (Salmonella): 28 µg/mL (≈ 24.5 µM)
MIC (Staphylococcus aureus [42]): 1.8 µg/mL (≈ 1.58 µM)
MIC (Staphylococcus aureus [43]): 3.6 µg/mL (≈ 3.15 µM)
MIC [44]: 1.8 µg/mL (≈ 1.58 µM)
MIC (Staphylococcus aureus [45]): 2 µg/mL (≈ 1.75 µM)
MIC [46]: 2 µg/mL (≈ 1.75 µM)
MIC (Staphylococcus xylosus): 1 µg/mL (≈ 0.876 µM)
MIC (Staphylococcus aureus [47]): 2 µg/mL (≈ 1.75 µM)

MIC (Staphylococcus aureus [26]): 4 µg/mL (≈ 3.21 µM)
MIC (Escherichia coli [27]): 64 µg/mL (≈ 51.3 µM)
MIC (Pseudomonas aeruginosa [28]): 128 µg/mL (≈ 103 µM)
MIC (Enterococcus faecalis [29]): 8 µg/mL (≈ 6.41 µM)
MIC [30]: 4 µg/mL (≈ 3.21 µM)
Compound: CCCCCCCC[C@H]1CC2C(C1)[C@@H]1SC[C@H]3C(=O)N[C@@H](C(C)C)C(=O)N[C@@H](CCCN)C(=O)N[C@@H](CC(C)C)C(=O)N[C@H](Cc4ccccc4)C(=O)N4CCC[C@H]4C(=O)N[C@@H](C(C)C)C(=O)N[C@H](CCCN)C(=O)N[C@@H](CC(C)C)C(=O)N[C@H]2C(=O)N31 (some centres undefined)
HC90 (Erythrocyte [48]): 38 µg/mL
selectivity ratio [49]: 0.59
selectivity ratio [50]: 0.3
selectivity ratio [51]: 4.75
selectivity ratio [52]: 9.5
selectivity ratio [53]: 9.5

Compound: CC(C)C[C@@H]1NC(=O)[C@H](CCCN)NC(=O)[C@H](C(C)C)NC(=O)[C@@H]2CCCN2C(=O)[C@@H](Cc2ccccc2)NC(=O)[C@H](CC(C)C)NC(=O)[C@H](CCCN)NC(=O)[C@H](C(C)C)NC(=O)[C@H]2CC[C@H](OCc3ccccc3)[C@@H](CNC1=O)O2
HD100 (Erythrocyte [54]): 500 µg/mL
